Experimental data from patent US10377698B2, “Diphenethylamine derivatives which are inter alia useful as analgesics and method for their production” (UNIVERSITY OF INNSBRUCK, priority 2015, dated 2019).
Structures can show the parent of a compound that is named as a salt. Where two headings read alike, the source gives them in different places.

Legend:
human MOR = target: T1, human MOR (Homo sapiens, UniProt P35372); assay: Opioid receptor binding assay, competition binding, CHO cell membranes (MOR); conditions: membranes from CHO cells stably expressing human MOR; read-out: Affinity Ki MOR
T1 construct: expressed in transfected cells; host or cells: CHO cells (membranes)
T1 sequence (P35372 whole entry): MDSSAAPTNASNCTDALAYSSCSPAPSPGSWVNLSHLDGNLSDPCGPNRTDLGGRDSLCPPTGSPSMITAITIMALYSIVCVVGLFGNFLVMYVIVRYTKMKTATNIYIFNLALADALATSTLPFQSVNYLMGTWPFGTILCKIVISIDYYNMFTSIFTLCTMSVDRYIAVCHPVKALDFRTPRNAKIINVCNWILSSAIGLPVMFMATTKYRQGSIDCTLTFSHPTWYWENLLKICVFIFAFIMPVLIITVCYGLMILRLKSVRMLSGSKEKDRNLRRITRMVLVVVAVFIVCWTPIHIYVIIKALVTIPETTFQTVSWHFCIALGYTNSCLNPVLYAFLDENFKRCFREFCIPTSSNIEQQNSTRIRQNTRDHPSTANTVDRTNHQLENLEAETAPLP

human DOR = target: T2, human DOR (Homo sapiens, UniProt P41143); assay: Opioid receptor binding assay, competition binding, CHO cell membranes (DOR); conditions: membranes from CHO cells stably expressing human DOR; read-out: Affinity Ki DOR
T2 construct: expressed in transfected cells; host or cells: CHO cells (membranes)
T2 sequence (P41143 whole entry): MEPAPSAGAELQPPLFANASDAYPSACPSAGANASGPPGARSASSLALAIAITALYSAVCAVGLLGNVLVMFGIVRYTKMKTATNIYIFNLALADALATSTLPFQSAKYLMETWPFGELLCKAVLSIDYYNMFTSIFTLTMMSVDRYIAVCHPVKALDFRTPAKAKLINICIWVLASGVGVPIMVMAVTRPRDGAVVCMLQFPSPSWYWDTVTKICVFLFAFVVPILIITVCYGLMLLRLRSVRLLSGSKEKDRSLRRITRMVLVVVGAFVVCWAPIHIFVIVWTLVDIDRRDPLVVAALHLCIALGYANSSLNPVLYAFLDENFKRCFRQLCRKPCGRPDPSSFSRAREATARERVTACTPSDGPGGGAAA

[1] = parameters: species or system mice; conditions: mouse, in vivo, sc
KOR [2] = target: T3, KOR (Homo sapiens, UniProt P41145); assay: biochemical; format: binding; parameters: expressed in transfected cells; host or cells: CHO cells (membranes)
T3 sequence (P41145 whole entry): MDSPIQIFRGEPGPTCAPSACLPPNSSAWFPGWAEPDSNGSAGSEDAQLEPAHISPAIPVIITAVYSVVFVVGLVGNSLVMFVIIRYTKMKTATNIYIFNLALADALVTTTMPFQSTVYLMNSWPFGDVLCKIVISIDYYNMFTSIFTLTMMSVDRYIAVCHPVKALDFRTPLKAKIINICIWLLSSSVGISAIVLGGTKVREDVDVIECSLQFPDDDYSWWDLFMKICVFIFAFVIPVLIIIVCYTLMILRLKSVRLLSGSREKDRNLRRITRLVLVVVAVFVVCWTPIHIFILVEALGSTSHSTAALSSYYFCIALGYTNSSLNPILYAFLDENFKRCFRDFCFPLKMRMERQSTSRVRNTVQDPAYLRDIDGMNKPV

KOR [3] = target: T3, KOR; assay: biochemical; format: biochemical; parameters: expressed in transfected cells; host or cells: CHO cells (membranes); conditions: for Emax: read-out: [35S]GTPγS binding KOR Emax
KOR [4] = target: T3, KOR; assay: KOR-mediated β-arrestin2 recruitment, DiscoveRx PathHunter assay, U2OS-hMOR-β-arrestin2 cells; format: cell-based; conditions: for Emax: read-out: β-arrestin2 recruitment assay Emax
[5] = read-out: [35S]GTPγS binding KOR EC50

Question: Which Ki (human MOR) does the source give for `Oc1cccc(CCN(CCc2cccc(O)c2)CC2CCC2)c1` [Compound 12, 3,3′-[2,2′-(Cyclobutylmethylazanediyl)bis(ethane-2,1-diyl)]diphenol] here?
Answer: The Ki was 230 nM.

Question: And the Ki (human DOR)?
Answer: Its Ki is 4180 nM.

Question: What about the ED50 writhing test [1] of the same compound?
Answer: The ED50 writhing test was 1.59 mg/kg, s.c.

Question: And the “Relative analgesic potency to HS665” value [1]?
Answer: Its value is 1.2.

Question: What about the “Relative analgesic potency to HS666” value [1] of the same compound?
Answer: Its value is 2.0.

Question: What about the “Relative analgesic potency to U50,488” value [1] of the same compound?
Answer: Its value is 1.0.

Question: What about the Ki (KOR [2]) of the same compound?
Answer: The Ki was 0.34 nM.

Question: And the EC50 (KOR [3])?
Answer: Its EC50 is 5.51 nM.

Question: And the Emax (KOR [3])?
Answer: Its Emax is 71.4%.

Question: For `Oc1ccc(CCN(CCc2cccc(O)c2)CC2CCCCC2)cc1`, which melting point is on record?
Answer: The melting point was 155 to 157 °C.

Question: Which melting point does the source give for `C=CCN(CCc1cccc(O)c1)CCc1cccc(O)c1` here?
Answer: The melting point was 104 to 106 °C.

Question: What does the source list for `COc1cccc(CCN(CCc2ccc(O)cc2)CC2CCCC2)c1` [Compound 27, 4-[2-[(Cyclopentylmethyl)(3-methoxyphenethyl)amino]ethyl]phenol]?
Answer: Ki (human MOR): 158 nM; Ki (human DOR): 6240 nM; melting point: 74 to 77 °C; Ki (KOR [2]): 0.17 nM; EC50 (KOR [3]): 22.8 nM; Emax (KOR [3]): 73.6%

Question: What does the source list for `Oc1cccc(CCN(CCc2ccccc2)CC2CCC2)c1F` [Compound 49, 3-[2-[(Cyclobutylmethyl)(phenethyl)amino]ethyl]-2-fluorophenol]?
Answer: Ki (human MOR): 414 nM; Bias factor (KOR [4]): 82; EC50 (KOR [4]): 859 nM; Emax (KOR [4]): 57.5%; Ki (KOR [2]): 0.022 nM; EC50 (KOR [3]; [5]): 6.9 nM; Emax (KOR [3]): 66.1%

Question: Which melting point does the source give for `Oc1cccc(CCN(CCc2cccc(O)c2)CC2CC2)c1` here?
Answer: Its melting point is 106 to 107 °C.

Question: With `CCCCN(CCc1cccc(O)c1)CCc1cccc(O)c1` as the compound, how does the melting point read?
Answer: The melting point was 62 to 64 °C.

Question: With `Oc1cccc(CCN(CCc2ccccc2)Cc2ccccc2)c1F` as the compound, how does the melting point read?
Answer: The melting point was 126 to 128 °C.

Question: With `Oc1cccc(CCN(CCc2ccccc2)CC2CCCC2)c1` [Compound 2, 3-[2-[(Cyclopentylmethyl)(phenethyl)amino]ethyl]phenol] as the compound, how does the Ki (human DOR) read?
Answer: Its Ki is 5210 nM.

Question: And the EC50 (KOR [4])?
Answer: Its EC50 is 1340 nM.

Question: And the Emax (KOR [4])?
Answer: Its Emax is 83%.

Question: And the ED50 writhing test [1]?
Answer: Its ED50 writhing test is 0.54 mg/kg, s.c.

Question: And the “Relative analgesic potency to HS665” value [1]?
Answer: The value was 3.5.

Question: What about the “Relative analgesic potency to HS666” value [1] of the same compound?
Answer: Its value is 6.0.

Question: And the “Relative analgesic potency to U50,488” value [1]?
Answer: The value was 2.9.

Question: What about the melting point of the same compound?
Answer: Its melting point is 154 to 156 °C.

Question: And the EC50 (KOR [3])?
Answer: Its EC50 is 4.19 nM.

Question: What about the Emax (KOR [3]) of the same compound?
Answer: Its Emax is 72.9%.

Question: Which results are given for `Oc1cccc(CCN(CCc2cccc(O)c2)CC2CCCC2)c1` [Compound 39, 3,3′-[2,2′-(Cyclopentylmethylazanediyl)bis(ethane-2,1-diyl)]diphenol]?
Answer: Ki (human MOR): 702 nM; melting point: 113 °C; Ki (KOR [2]): 0.38 nM; EC50 (KOR [3]): 14.2 nM; Emax (KOR [3]): 83.6%

Question: Which melting point does the source give for `Oc1cccc(CCN(CCc2ccccc2)C2CCC2)c1` here?
Answer: Its melting point is 100 to 101 °C.

Question: Which Ki (human DOR) does the source give for `Oc1cccc(CCN(CCc2ccccc2)CC2CCC2)c1` [HS665, reference compound] here?
Answer: The Ki was > 10000 nM.

Question: What about the ED50 writhing test [1] of the same compound?
Answer: The ED50 writhing test was 1.91 mg/kg, s.c.

Question: For `CC(C)CCN(CCc1cccc(O)c1)CCc1cccc(O)c1`, which melting point is on record?
Answer: Its melting point is 71 to 72 °C.

Question: For `CCCCN(CCc1ccc(O)cc1)CCc1cccc(O)c1`, which melting point is on record?
Answer: Its melting point is 65 to 68 °C.

Question: With `Nc1cccc(CCN(CCc2ccccc2)CC2CCC2)c1` (as salt: hydrochloride) as the compound, how does the melting point read?
Answer: Its melting point is 68 to 70 °C.

Question: What does the source list for `Oc1cccc(CCN(CCc2cccc(O)c2)CC2CCCCC2)c1` [Compound 29, 3,3′-[2,2′-(Cyclohexylmethylazanediyl)bis(ethane-2,1-diyl)]diphenol]?
Answer: Ki (human MOR): 219 nM; melting point: 157 to 158 °C; Ki (KOR [2]): 0.18 nM; EC50 (KOR [3]): 10.6 nM; Emax (KOR [3]): 92.2%

Question: What does the source list for `Oc1cccc(CCN(CCc2cccc(O)c2F)CC2CCC2)c1` [Compound 53, 3-[2-[(Cyclobutylmethyl)(3-hydroxyphenethyl)amino]ethyl]-2-fluorophenol]?
Answer: Ki (human MOR): 548 nM; Ki (human DOR): 4750 nM; Bias factor (KOR [4]): 263; EC50 (KOR [4]): 529 nM; Emax (KOR [4]): 41.2%; Ki (KOR [2]; read-out: Affinity Ki KOR): 0.12 nM; EC50 (KOR [3]; [5]): 1.49 nM; Emax (KOR [3]): 53.1%

Question: Which melting point does the source give for `CC(C)CCN(CCc1ccccc1)CCc1cccc(O)c1` here?
Answer: Its melting point is 149 to 150 °C.

Question: With `Oc1ccc(CCN(CCc2cccc(O)c2)CC2CC2)cc1` as the compound, how does the melting point read?
Answer: Its melting point is 104 to 105 °C.

Question: Which melting point does the source give for `Oc1ccc(CCN(CCc2ccccc2)CC2CCCC2)cc1` here?
Answer: The melting point was 150 to 153 °C.

Question: For `C=CCN(CCc1ccc(O)cc1)CCc1cccc(O)c1`, which melting point is on record?
Answer: The melting point was 103 to 105 °C.

Question: For `Oc1cccc(CCN(CCc2ccccc2)CC2CCCCC2)c1` [Compound 3, 3-[2-[(Cyclohexylmethyl)(phenethyl)amino]ethyl]phenol], which Ki (human MOR) is on record?
Answer: Its Ki is 436 nM.

Question: And the Ki (human DOR)?
Answer: The Ki was 2140 nM.

Question: What about the Bias factor (KOR [4]) of the same compound?
Answer: Its Bias factor is 2909.

Question: And the EC50 (KOR [4])?
Answer: Its EC50 is 1360 nM.

Question: What about the Emax (KOR [4]) of the same compound?
Answer: Its Emax is 72.2%.

Question: What about the ED50 writhing test [1] of the same compound?
Answer: The ED50 writhing test was 0.97 mg/kg, s.c.

Question: What about the “Relative analgesic potency to HS665” value [1] of the same compound?
Answer: The value was 2.0.

Question: And the “Relative analgesic potency to HS666” value [1]?
Answer: Its value is 3.3.

Question: And the “Relative analgesic potency to U50,488” value [1]?
Answer: The value was 1.6.

Question: And the melting point?
Answer: The melting point was 150 to 151 °C.

Question: What about the Ki (KOR [2]) of the same compound?
Answer: The Ki was 0.088 nM.

Question: What about the EC50 (KOR [3]; [5]) of the same compound?
Answer: Its EC50 is 0.23 nM.

Question: And the Emax (KOR [3])?
Answer: The Emax was 61.9%.

Question: Which Ki (human MOR) does the source give for `Oc1cccc(CCN(CCc2ccccc2)Cc2ccccc2)c1` [Compound 4, 3-[2-[Benzyl(phenethyl)amino]ethyl]phenol] here?
Answer: The Ki was 463 nM.

Question: And the Ki (human DOR)?
Answer: The Ki was 1860 nM.

Question: What about the Bias factor (KOR [4]) of the same compound?
Answer: The Bias factor was 1172.

Question: What about the EC50 (KOR [4]; DiscoveRx PathHunter assay, U2OS-hMOR cells, read-out: β-arrestin2 recruitment assay EC50) of the same compound?
Answer: The EC50 was 4450 nM.

Question: What about the Emax (KOR [4]) of the same compound?
Answer: The Emax was 37.3%.

Question: What about the “Relative analgesic potency to HS665” value [1] of the same compound?
Answer: Its value is 1.6.

Question: And the “Relative analgesic potency to HS666” value [1]?
Answer: The value was 2.7.

Question: What about the “Relative analgesic potency to U50,488” value [1] of the same compound?
Answer: The value was 1.3.

Question: And the melting point?
Answer: The melting point was 177 to 178 °C.

Question: What about the Ki (KOR [2]; read-out: Affinity Ki KOR) of the same compound?
Answer: The Ki was 0.71 nM.

Question: And the EC50 (KOR [3]; [5])?
Answer: The EC50 was 4.65 nM.

Question: What about the Emax (KOR [3]) of the same compound?
Answer: The Emax was 79.5%.

Question: Which melting point does the source give for `CCCCCN(CCc1cccc(O)c1)CCc1cccc(O)c1` here?
Answer: Its melting point is 70 to 72 °C.

Question: What does the source list for `Oc1cccc(CCN(CCc2ccccc2)CC2CCCCC2)c1F` [Compound 51, 3-[2-[(Cyclohexylmethyl)(phenethyl)amino]ethyl]-2-fluorophenol]?
Answer: Ki (human MOR): 543 nM; Bias factor (KOR [4]): 1514; EC50 (KOR [4]): 4180 nM; Emax (KOR [4]): 48.4%; ED50 writhing test [1]: 1.20 mg/kg, s.c.; Relative analgesic potency to HS665 [1]: 1.6; Relative analgesic potency to HS666 [1]: 2.7; Relative analgesic potency to U50,488 [1]: 1.3; melting point: 129 to 130 °C; Ki (KOR [2]): 0.046 nM; EC50 (KOR [3]; [5]): 2.77 nM; Emax (KOR [3]): 84.6%

Question: Which melting point does the source give for `CCCCCCN(CCc1cccc(O)c1)CCc1cccc(O)c1` here?
Answer: The melting point was 75 to 76 °C.

Question: Which Ki (human MOR) does the source give for `Cl.Oc1cccc(CCN(CCc2ccccc2)CC2CC2)c1` [HS666, 3-[2-[(Cyclopropylmethyl)(phenethyl)amino]ethyl]phenol Hydrochloride, reference compound] here?
Answer: The Ki was 826 nM.

Question: What about the Ki (human DOR) of the same compound?
Answer: Its Ki is > 10000 nM.

Question: What about the Bias factor (KOR [4]) of the same compound?
Answer: Its Bias factor is 18.

Question: And the EC50 (KOR [4])?
Answer: Its EC50 is 502 nM.

Question: And the Emax (KOR [4])?
Answer: The Emax was 25%.

Question: What about the ED50 writhing test [1] of the same compound?
Answer: The ED50 writhing test was 3.23 mg/kg, s.c.

Question: What about the “Relative analgesic potency to HS665” value [1] of the same compound?
Answer: The value was 0.6.

Question: And the “Relative analgesic potency to HS666” value [1]?
Answer: Its value is 1.0.

Question: What about the “Relative analgesic potency to U50,488” value [1] of the same compound?
Answer: Its value is 0.5.

Question: What about the Ki (KOR [2]; read-out: Affinity Ki KOR) of the same compound?
Answer: Its Ki is 5.9 nM.

Question: And the EC50 (KOR [3]; [5])?
Answer: The EC50 was 35 nM.

Question: And the Emax (KOR [3])?
Answer: The Emax was 53.4%.
